Measured values published in patent US20240199611A1, “ANTIBACTERIAL COMPOUNDS” (JANSSEN SCIENCES IRELAND UNLIMITED COMPANY, priority 2021, published 2024).

System: Mycobacterium tuberculosis strain EH4.0 expressing green-fluorescent protein (GFP)
Assay: microbe, parasite or virus in culture
Format: cell-based
Details: Test 1 (and/or Test 2), read-out: pIC50 (converted)

Row | Compound | IC50
1 | CCc1nc2ccc(Cl)cn2c1C(=O)NCc1ccc(N2CCN(S(=O)(=O)C(F)(F)F)C=N2)c(OC)c1 [Compound 25] | 10 nM
2 | CCc1nc2ccc(OC)cn2c1C(=O)NCc1ccc(N2CCN(S(=O)(=O)C(F)(F)F)C(OC)=N2)cc1 [Compound 36] | 3.98 nM
3 | CCc1nc2ccc(COC)cn2c1C(=O)NCc1ccc(N2CCN(S(=O)(=O)C(F)(F)F)C=N2)cc1 [Compound 43] | 10 nM
4 | CCc1nc2ncc(Cl)cn2c1C(=O)NCc1cc(F)c(N2CCN(S(=O)(=O)C(F)(F)F)C=N2)c(F)c1 [Compound 47] | 3.16 nM
5 | CCc1nc2ccc(Cl)cn2c1C(=O)NCc1ccc(N2CCN(c3nccs3)C(OC)=N2)cc1 [Compound 54] | 11 nM
6 | CCc1nc2c(F)cc(Cl)cn2c1C(=O)NCc1ccc(N2CCN(S(=O)(=O)C(F)(F)F)C(C3CC3)=N2)c(F)c1 [Compound 231] | 0.891 nM
7 | CCC1=NN(c2ccc(CNC(=O)c3c(C(F)(F)F)nc4ccccn34)cc2F)CCN1S(=O)(=O)C(F)(F)F [Compound 233] | 1.07 nM
8 | CCC1=NN(c2ccc(CNC(=O)c3c(CC)nc4ncc(C)cn34)cc2F)CCN1S(=O)(=O)C(F)(F)F [Compound 234] | 0.324 nM
9 | CCC1=NN(c2ncc(CNC(=O)c3c(CC)nc4ncc(C)cn34)cc2F)CCN1S(=O)(=O)C(F)(F)F [Compound 235] | 6.31 nM
10 | CCc1nc2c(F)cc(Cl)cn2c1C(=O)NCc1ccc(N2CCN(S(=O)(=O)C(F)(F)F)C(C(C)C)=N2)c(F)c1 [Compound 238] | 1.58 nM
11 | Cc1ccc2nc(C(F)F)c(C(=O)NCc3ccc(N4CCN(S(=O)(=O)C(F)(F)F)C(C(C)C)=N4)c(F)c3)n2c1 [Compound 240] | 0.603 nM
12 | CCc1nc2cc(C)c(C)cn2c1C(=O)NCc1ccc(N2CCN(S(=O)(=O)C(F)(F)F)C(C(C)C)=N2)c(F)c1 [Compound 241] | 3.47 nM
13 | CC(C)C1=NN(c2ccc(CNC(=O)c3c(C(F)(F)F)nc4ccccn34)cc2F)CCN1S(=O)(=O)C(F)(F)F [Compound 247] | 1.38 nM
14 | CCc1nc2ncc(C)cn2c1C(=O)NCc1ccc(N2CCN(S(=O)(=O)C(F)(F)F)C(C(C)C)=N2)c(F)c1 [Compound 248] | 0.224 nM
15 | CCc1nc2ncc(C)cn2c1C(=O)NCc1ccc(N2CCN(S(=O)(=O)C(F)(F)F)C(C)=N2)c(F)c1 [Compound 251] | 0.437 nM
16 | CC1=NN(c2ccc(CNC(=O)c3c(C(F)(F)F)nc4ccccn34)cc2F)CCN1S(=O)(=O)C(F)(F)F [Compound 252] | 1.2 nM

System: not given
Assay: not given
Format: physicochemical
Details: 0 h, 30 μM
Protocol: Chemical Stability Testing
Preliminary Protocol • Add 3 μl of a 10 mM DMSO stock solution to 1 ml of the following solvents in a 1.5 ml HPLC vial. • DMSO (reference solution) • H2O/Acetonitril 1/1 (assay solution) • 0.1N HCl/Acetonitril 1/1 (assay solution) • Mix well, […] LCMS • Compare the chromatograms of the two assay solutions with the reference solution and report the additional peaks as degradation peaks

Row | Compound | chemical stability (% by LCMS), DMSO
17 | CCc1nc2c(F)cc(Cl)cn2c1C(=O)NCc1ccc(N2CCN(S(=O)(=O)C(F)(F)F)C(C3CC3)=N2)c(F)c1 [Compound 231] | 98%
18 | CCC1=NN(c2ccc(CNC(=O)c3c(C(F)(F)F)nc4ccccn34)cc2F)CCN1S(=O)(=O)C(F)(F)F [Compound 233] | 99%
19 | CCC1=NN(c2ccc(CNC(=O)c3c(CC)nc4ncc(C)cn34)cc2F)CCN1S(=O)(=O)C(F)(F)F [Compound 234] | 96%
20 | CCC1=NN(c2ncc(CNC(=O)c3c(CC)nc4ncc(C)cn34)cc2F)CCN1S(=O)(=O)C(F)(F)F [Compound 235] | 99%
21 | CCc1nc2c(F)cc(Cl)cn2c1C(=O)NCc1ccc(N2CCN(S(=O)(=O)C(F)(F)F)C(C(C)C)=N2)c(F)c1 [Compound 238] | 100%
22 | Cc1ccc2nc(C(F)F)c(C(=O)NCc3ccc(N4CCN(S(=O)(=O)C(F)(F)F)C(C(C)C)=N4)c(F)c3)n2c1 [Compound 240] | 100%
23 | CCc1nc2cc(C)c(C)cn2c1C(=O)NCc1ccc(N2CCN(S(=O)(=O)C(F)(F)F)C(C(C)C)=N2)c(F)c1 [Compound 241] | 100%
24 | CC(C)C1=NN(c2ccc(CNC(=O)c3c(C(F)(F)F)nc4ccccn34)cc2F)CCN1S(=O)(=O)C(F)(F)F [Compound 247] | 96%
25 | CCc1nc2ncc(C)cn2c1C(=O)NCc1ccc(N2CCN(S(=O)(=O)C(F)(F)F)C(C(C)C)=N2)c(F)c1 [Compound 248] | 92%
26 | CCc1nc2ncc(C)cn2c1C(=O)NCc1ccc(N2CCN(S(=O)(=O)C(F)(F)F)C(C)=N2)c(F)c1 [Compound 251] | 100%
27 | CC1=NN(c2ccc(CNC(=O)c3c(C(F)(F)F)nc4ccccn34)cc2F)CCN1S(=O)(=O)C(F)(F)F [Compound 252] | 99%

Same assay, conditions: 48 h, 30 μM

Row | Compound | chemical stability (% by LCMS), ACN/H2O
28 | CCc1nc2c(F)cc(Cl)cn2c1C(=O)NCc1ccc(N2CCN(S(=O)(=O)C(F)(F)F)C(C3CC3)=N2)c(F)c1 [Compound 231] | 98%
29 | CCC1=NN(c2ccc(CNC(=O)c3c(C(F)(F)F)nc4ccccn34)cc2F)CCN1S(=O)(=O)C(F)(F)F [Compound 233] | 99%
30 | CCC1=NN(c2ccc(CNC(=O)c3c(CC)nc4ncc(C)cn34)cc2F)CCN1S(=O)(=O)C(F)(F)F [Compound 234] | 95%
31 | CCC1=NN(c2ncc(CNC(=O)c3c(CC)nc4ncc(C)cn34)cc2F)CCN1S(=O)(=O)C(F)(F)F [Compound 235] | 99%
32 | CCc1nc2c(F)cc(Cl)cn2c1C(=O)NCc1ccc(N2CCN(S(=O)(=O)C(F)(F)F)C(C(C)C)=N2)c(F)c1 [Compound 238] | 100%
33 | Cc1ccc2nc(C(F)F)c(C(=O)NCc3ccc(N4CCN(S(=O)(=O)C(F)(F)F)C(C(C)C)=N4)c(F)c3)n2c1 [Compound 240] | 100%
34 | CCc1nc2cc(C)c(C)cn2c1C(=O)NCc1ccc(N2CCN(S(=O)(=O)C(F)(F)F)C(C(C)C)=N2)c(F)c1 [Compound 241] | 100%
35 | CC(C)C1=NN(c2ccc(CNC(=O)c3c(C(F)(F)F)nc4ccccn34)cc2F)CCN1S(=O)(=O)C(F)(F)F [Compound 247] | 100%
36 | CCc1nc2ncc(C)cn2c1C(=O)NCc1ccc(N2CCN(S(=O)(=O)C(F)(F)F)C(C(C)C)=N2)c(F)c1 [Compound 248] | 100%
37 | CCc1nc2ncc(C)cn2c1C(=O)NCc1ccc(N2CCN(S(=O)(=O)C(F)(F)F)C(C)=N2)c(F)c1 [Compound 251] | 100%
38 | CC1=NN(c2ccc(CNC(=O)c3c(C(F)(F)F)nc4ccccn34)cc2F)CCN1S(=O)(=O)C(F)(F)F [Compound 252] | 99%

Same assay, conditions: 48 h, 30 μM, pH 1.6

Row | Compound | chemical stability (% by LCMS), ACN/0.1N HCl
39 | CCc1nc2c(F)cc(Cl)cn2c1C(=O)NCc1ccc(N2CCN(S(=O)(=O)C(F)(F)F)C(C3CC3)=N2)c(F)c1 [Compound 231] | 98%
40 | CCC1=NN(c2ccc(CNC(=O)c3c(C(F)(F)F)nc4ccccn34)cc2F)CCN1S(=O)(=O)C(F)(F)F [Compound 233] | 99%
41 | CCC1=NN(c2ccc(CNC(=O)c3c(CC)nc4ncc(C)cn34)cc2F)CCN1S(=O)(=O)C(F)(F)F [Compound 234] | 97%
42 | CCC1=NN(c2ncc(CNC(=O)c3c(CC)nc4ncc(C)cn34)cc2F)CCN1S(=O)(=O)C(F)(F)F [Compound 235] | 98%
43 | CCc1nc2c(F)cc(Cl)cn2c1C(=O)NCc1ccc(N2CCN(S(=O)(=O)C(F)(F)F)C(C(C)C)=N2)c(F)c1 [Compound 238] | 100%
44 | Cc1ccc2nc(C(F)F)c(C(=O)NCc3ccc(N4CCN(S(=O)(=O)C(F)(F)F)C(C(C)C)=N4)c(F)c3)n2c1 [Compound 240] | 100%
45 | CCc1nc2cc(C)c(C)cn2c1C(=O)NCc1ccc(N2CCN(S(=O)(=O)C(F)(F)F)C(C(C)C)=N2)c(F)c1 [Compound 241] | 100%
46 | CC(C)C1=NN(c2ccc(CNC(=O)c3c(C(F)(F)F)nc4ccccn34)cc2F)CCN1S(=O)(=O)C(F)(F)F [Compound 247] | 100%
47 | CCc1nc2ncc(C)cn2c1C(=O)NCc1ccc(N2CCN(S(=O)(=O)C(F)(F)F)C(C(C)C)=N2)c(F)c1 [Compound 248] | 100%
48 | CCc1nc2ncc(C)cn2c1C(=O)NCc1ccc(N2CCN(S(=O)(=O)C(F)(F)F)C(C)=N2)c(F)c1 [Compound 251] | 100%
49 | CC1=NN(c2ccc(CNC(=O)c3c(C(F)(F)F)nc4ccccn34)cc2F)CCN1S(=O)(=O)C(F)(F)F [Compound 252] | 99%

System: not given
Assay: not given
Details: not given

Row | Compound | melting point
50 | CCc1nc2ccc(Cl)cn2c1C(=O)NCc1ccc(N2CCN(S(=O)(=O)C(F)(F)F)C=N2)c(OC)c1 [Compound 25] | 125.56 °C
51 | CCc1nc2ccc(OC)cn2c1C(=O)NCc1ccc(N2CCN(S(=O)(=O)C(F)(F)F)C(OC)=N2)cc1 [Compound 36] | 142.03 °C
52 | CCc1nc2ccc(COC)cn2c1C(=O)NCc1ccc(N2CCN(S(=O)(=O)C(F)(F)F)C=N2)cc1 [Compound 43] | 169.05 °C
53 | CCc1nc2ncc(Cl)cn2c1C(=O)NCc1cc(F)c(N2CCN(S(=O)(=O)C(F)(F)F)C=N2)c(F)c1 [Compound 47] | 149.44 °C
54 | CCc1nc2ccc(Cl)cn2c1C(=O)NCc1ccc(N2CCN(c3nccs3)C(OC)=N2)cc1 [Compound 54] | 233.23 °C
